For assay [1], the target named is T1, Solute carrier family 2, facilitated glucose transporter member 1 (Homo sapiens, UniProt P11166).
T1 sequence (P11166 whole entry): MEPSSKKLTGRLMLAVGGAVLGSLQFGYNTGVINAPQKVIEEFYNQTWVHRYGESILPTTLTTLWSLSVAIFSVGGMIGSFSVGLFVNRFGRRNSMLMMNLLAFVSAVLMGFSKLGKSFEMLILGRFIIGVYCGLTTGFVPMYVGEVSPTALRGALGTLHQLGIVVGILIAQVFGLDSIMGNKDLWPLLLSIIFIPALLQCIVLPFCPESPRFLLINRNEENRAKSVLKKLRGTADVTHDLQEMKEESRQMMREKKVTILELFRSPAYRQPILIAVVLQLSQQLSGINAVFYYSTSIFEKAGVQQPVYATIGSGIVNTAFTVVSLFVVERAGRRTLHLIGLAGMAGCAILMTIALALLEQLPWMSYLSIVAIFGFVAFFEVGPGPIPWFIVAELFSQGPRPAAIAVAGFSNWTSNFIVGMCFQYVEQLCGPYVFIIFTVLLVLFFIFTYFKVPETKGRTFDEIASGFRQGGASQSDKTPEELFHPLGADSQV
Description: Inhibition of human GLUT1 expressed in DLD1 cells assessed as ATP production co-incubated with 100 mM glucose for 16 hrs by CellTiter-Glo assay in presence of oxidative phosphorylation inhibitor rotenone. It counts as cell-based, DLD-1. (In general: In ATP-based viability assays light output follows the ATP content of the culture.)

Assay [2] deals with T2, Solute carrier family 2, facilitated glucose transporter member 2 (Homo sapiens, UniProt P11168).
T2 sequence (P11168 whole entry): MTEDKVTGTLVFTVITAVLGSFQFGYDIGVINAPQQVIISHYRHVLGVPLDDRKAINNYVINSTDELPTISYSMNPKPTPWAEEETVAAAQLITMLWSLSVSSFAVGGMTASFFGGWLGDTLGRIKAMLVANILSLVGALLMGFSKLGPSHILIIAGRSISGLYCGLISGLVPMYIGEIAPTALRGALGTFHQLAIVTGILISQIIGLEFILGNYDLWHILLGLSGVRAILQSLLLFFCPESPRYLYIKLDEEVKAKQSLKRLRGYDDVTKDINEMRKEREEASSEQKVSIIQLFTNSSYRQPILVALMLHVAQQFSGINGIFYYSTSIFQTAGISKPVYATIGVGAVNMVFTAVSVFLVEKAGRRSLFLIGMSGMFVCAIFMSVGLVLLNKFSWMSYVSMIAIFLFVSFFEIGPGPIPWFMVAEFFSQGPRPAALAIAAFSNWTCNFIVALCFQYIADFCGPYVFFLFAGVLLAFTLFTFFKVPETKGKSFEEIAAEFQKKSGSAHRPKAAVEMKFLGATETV
The experiment in a line: Inhibition of human GLUT2 expressed in CHO cells assessed as ATP production co-incubated with 30 mM fructose for 16 hrs by CellTiter-Glo assay in presence of oxidative phosphorylation inhibitor rotenone. Type of assay: cell-based.

In assay [3] the target is T3, Solute carrier family 2, facilitated glucose transporter member 3 (Homo sapiens, UniProt P11169).
T3 sequence (P11169 whole entry): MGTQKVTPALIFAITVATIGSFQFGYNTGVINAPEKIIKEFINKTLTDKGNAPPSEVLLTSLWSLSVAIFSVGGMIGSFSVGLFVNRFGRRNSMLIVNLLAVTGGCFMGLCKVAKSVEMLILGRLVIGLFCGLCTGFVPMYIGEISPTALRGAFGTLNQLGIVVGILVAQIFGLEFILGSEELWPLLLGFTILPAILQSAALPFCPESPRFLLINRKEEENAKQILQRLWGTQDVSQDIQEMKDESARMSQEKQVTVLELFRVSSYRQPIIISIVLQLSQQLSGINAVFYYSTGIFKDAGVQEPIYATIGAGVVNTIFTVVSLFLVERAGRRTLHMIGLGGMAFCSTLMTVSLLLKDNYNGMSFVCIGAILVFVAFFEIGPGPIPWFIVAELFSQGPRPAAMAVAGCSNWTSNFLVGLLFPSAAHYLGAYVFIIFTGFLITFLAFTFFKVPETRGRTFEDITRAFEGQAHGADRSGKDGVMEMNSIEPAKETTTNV
Description: Inhibition of human GLUT3 expressed in GLUT1 knock-out DLD1 cells assessed as ATP production co-incubated with 300 mM glucose for 16 hrs by CellTiter-Glo assay in presence of oxidative phosphorylation inhibitor rotenone. Type of assay: cell-based, DLD-1.

Among the data in ChEMBL document CHEMBL3779893, “Identification of novel GLUT inhibitors” (Bioorg Med Chem Lett, 2016) are IC50 values, retold here.

On to `COc1ccccc1N1CCN(c2ncnc3c2cnn3-c2cccc(C)c2)CC1`, for which the IC50 – broadly, the concentration that inhibits the measured activity by half – worked out at 50 nM in assay [1], 10000 nM in assay [2] and 96 nM in assay [3].
On to `COc1ccccc1N1CCN(c2ncnc3c2[nH]c(=O)n3-c2ccccc2)CC1`, for which the figures for the half-inhibitory concentration (IC50) in assay [1], in assay [2] and in assay [3] were 53 nM, more than 10000 nM and 630 nM, respectively.
In the same order, the values of `COc1ccccc1N1C[C@H]2C[C@@H]1CN2c1ncnc2c1cnn2-c1ccccc1` are more than 10000 nM, more than 10000 nM and more than 10000 nM.
On the same counts, the results for `COc1ccc(C#N)cc1N1CCN(c2ncnc3c2cnn3-c2ccccc2)CC1` are 20 nM, more than 10000 nM and 50 nM.
Take `COc1ccccc1N1CC2(C1)CN(c1ncnc3c1cnn3-c1ccccc1)C2`: the concentration for half-maximal inhibition (IC50) in assay [1] was 4400 nM; in assay [3] it was 2200 nM.
Consider `COc1ccccc1N1CCN(c2ncnc3c2cnn3-c2ccccc2OC)CC1`, for which the 50% inhibitory concentration (IC50) in assay [1] was determined as 50 nM; in assay [2], 1200 nM; in assay [3] it was 110 nM.
In the same order, the values of `COc1ccncc1N1CCN(c2ncnc3c2cnn3-c2ccccc2)CC1` are 9 nM, 510 nM and 60 nM.
On the same counts, the results for `FC(F)(F)Oc1ccccc1N1CCN(c2ncnc3c2cnn3-c2ccccc2)CC1` are more than 10000 nM, more than 10000 nM and more than 10000 nM.
For the molecule `Fc1ccccc1N1CCN(c2ncnc3c2cnn3-c2ccccc2)CC1`, the IC50 in assay [1] stood at 270 nM; in assay [2], 1120 nM; in assay [3], 680 nM.
In the same order, the values of `COc1ccc(N2CCN(c3ncnc4c3cnn4-c3ccccc3)CC2)cc1` are 1770 nM, 8700 nM and 1770 nM.
For the molecule `COc1ccc(-n2ncc3c(N4CCN(c5ccccc5OC)CC4)ncnc32)cn1`, the results for the IC50 in assay [1] and in assay [3] were 100 nM and 340 nM, respectively.
With `N#Cc1cccc(N2CCN(c3ncnc4c3cnn4-c3ccccc3)CC2)c1`, the results for the half-maximal inhibitory concentration (IC50) in assay [1], in assay [2] and in assay [3] were 39 nM, 220 nM and 69 nM, respectively.
On the same counts, the results for `COc1ccccc1N1C[C@@H]2C[C@H]1CN2c1ncnc2c1cnn2-c1ccccc1` are 2300 nM, more than 10000 nM and 4100 nM.
For `COc1ccccc1N1CCN(c2ccnc3c2cnn3-c2ccccc2)CC1`, the half-inhibitory concentration (IC50) was 300 nM in assay [1], 600 nM in assay [2] and 4000 nM in assay [3].
In the same order, the values of `COc1ncccc1N1CCN(c2ncnc3c2cnn3-c2ccccc2)CC1` are 180 nM, 1360 nM and 680 nM.
With `COc1ccccc1N1CCN(c2ncnc3c2cnn3-c2cccc(C#N)c2)CC1`, the half-inhibitory concentration (IC50) was 33 nM in assay [1] and 350 nM in assay [3].
For the molecule `COc1cccc(-n2ncc3c(N4CCN(c5ccccc5OC)CC4)ncnc32)c1`, the half-maximal inhibitory concentration (IC50) in assay [1] was 200 nM; in assay [2] it was 900 nM; in assay [3], 170 nM.
On the same counts, the results for `COc1ccccc1N1CCN(c2ncnc3c2ncn3-c2ccccc2)CC1` are 27 nM, 3500 nM and 64 nM.
For the molecule `COc1cc(F)ccc1N1CCN(c2ncnc3c2cnn3-c2ccccc2)CC1`, the IC50 in assay [1] is 10 nM; in assay [2], more than 10000 nM; in assay [3] it was 40 nM.
In the same order, the values of `OC1CCCCC1N1CCN(c2ncnc3c2cnn3-c2ccccc2)CC1` (stereo not given) are more than 10000 nM, more than 10000 nM and more than 10000 nM.
On the same counts, the results for `N#Cc1ccccc1N1CCN(c2ncnc3c2cnn3-c2ccccc2)CC1` are 1810 nM, 5990 nM and 2050 nM.
In the same order, the values of `Oc1ccccc1N1CCN(c2ncnc3c2cnn3-c2ccccc2)CC1` are 7 nM, 60 nM and 60 nM.
Take `COc1c(F)cccc1N1CCN(c2ncnc3c2cnn3-c2ccccc2)CC1`: the IC50 in assay [1] is 2400 nM; in assay [2], more than 10000 nM; in assay [3], 10000 nM.
In the same order, the values of `COc1cc(C#N)ccc1N1CCN(c2ncnc3c2cnn3-c2ccccc2)CC1` are 150 nM, 1700 nM and 170 nM.
For `COc1ccccc1N1CCC(c2ncnc3c2cnn3-c2ccccc2)CC1`, the IC50 in assay [1] was 470 nM; in assay [3], 1200 nM.
For `COc1ccccc1N1CCN(c2ncnc3c2cnn3-c2ccccc2)CC1C` (stereo not given), the half-inhibitory concentration (IC50) in assay [1] was 14 nM; in assay [2] it was 1400 nM; in assay [3], 120 nM.
For the molecule `COc1ccc(C(N)=O)cc1N1CCN(c2ncnc3c2cnn3-c2ccccc2)CC1`, the results for the IC50 in assay [1], in assay [2] and in assay [3] were 5 nM, 100 nM and 37 nM, respectively.
In the same order, the values of `COc1ccccc1N1CCN(c2ncnc3c2cnn3-c2ccccc2C)CC1` are 10 nM, 1000 nM and 250 nM.
On the same counts, the results for `COc1ccccc1N1CCN(c2ncnc3c2nnn3-c2ccccc2)CC1` are 49 nM, 3300 nM and 430 nM.
For `COc1c(C#N)cccc1N1CCN(c2ncnc3c2cnn3-c2ccccc2)CC1`, the IC50 in assay [1] is 1200 nM; in assay [2], more than 10000 nM; in assay [3], 540 nM.
Consider `COc1ccccc1N1CCN(c2ncnc3c2cnn3-c2ncccc2F)CC1`, for which the half-maximal inhibitory concentration (IC50) in assay [1] turned out to be 80 nM; in assay [2], 7000 nM.
For `FC(F)(F)c1ccccc1N1CCN(c2ncnc3c2cnn3-c2ccccc2)CC1`, the IC50 in assay [1], in assay [2] and in assay [3] was more than 10000 nM throughout.
Turning to `COc1ccccc1N1CCN(c2ncnc3c2cnn3-c2ccccc2)C(C)C1` (stereo not given), the 50% inhibitory concentration (IC50) was 120 nM in assay [1], 2500 nM in assay [2] and 480 nM in assay [3].
In the same order, the values of `COc1cccc(F)c1N1CCN(c2ncnc3c2cnn3-c2ccccc2)CC1` are 110 nM, 1200 nM and 1600 nM.
For `COc1ccccc1C1CCN(c2ncnc3c2cnn3-c2ccccc2)CC1`, the half-inhibitory concentration (IC50) in assay [1] is 1900 nM; in assay [2], more than 10000 nM; in assay [3] it was more than 10000 nM.
For the molecule `COc1ccccc1N1CCN(c2nccc3c2cnn3-c2ccccc2)CC1`, the 50% inhibitory concentration (IC50) in assay [1] came out at 4000 nM; in assay [2], 5000 nM; in assay [3], 2000 nM.
Take `COc1cccc(N2CCN(c3ncnc4c3cnn4-c3ccccc3)CC2)c1`: the figures for the half-inhibitory concentration (IC50) in assay [1], in assay [2] and in assay [3] were 180 nM, 1480 nM and 320 nM, respectively.
Turning to `COc1cccnc1N1CCN(c2ncnc3c2cnn3-c2ccccc2)CC1`, the results for the IC50 in assay [1], in assay [2] and in assay [3] were 60 nM, 950 nM and 70 nM, respectively.
As for `COc1cnccc1N1CCN(c2ncnc3c2cnn3-c2ccccc2)CC1`, the concentration for half-maximal inhibition (IC50) in assay [1] is 230 nM; in assay [3], 1510 nM.
As for `COc1ccccc1N1CCN(c2nnnc3c2cnn3-c2ccccc2)CC1`, the IC50 in assay [1], in assay [2] and in assay [3] was more than 10000 nM each time.
`COc1ccccc1N1CCCN(c2ncnc3c2cnn3-c2ccccc2)CC1`: the IC50 in assay [1] is 4 nM; in assay [2] it was 21 nM; in assay [3], 8 nM.
Take `Fc1cccc(N2CCN(c3ncnc4c3cnn4-c3ccccc3)CC2)c1`: the values for the half-maximal inhibitory concentration (IC50) in assay [1], in assay [2] and in assay [3] were 290 nM, 1210 nM and 540 nM, respectively.
